Source: the supplement of paper PMC10307832

Legend:
Assay in all cases: relative viability (nuclei count vs DMSO), 5 days (fraction); higher = more cells survive
EMC-BAC-2 = tested on: EMC-BAC-2
Summary of the method: (§1)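 The day after seeding in 1536-well plates, lung cancer cell lines were treated by pin tool with a single drug, or with a fixed anchor-drug dose together with five library-drug doses (not always all listed) in √10 steps. After 5 days, a combined fix-and-stain solution (final 0.05% Triton X-100, 1% formaldehyde, 1 ug/ml Hoechst) was added. Nuclei counted on 4× images gave relative viability as treated counts over vehicle counts, reported as the median of duplicate plates.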

NCI-H1623 = tested on: NCI-H1623
Summary of the method: as §1

NCI-H1395 = tested on: NCI-H1395
Summary of the method: as §1

LCLC-97TM1 = tested on: LCLC-97TM1
Summary of the method: as §1

HCC-366 = tested on: HCC-366
Summary of the method: as §1

HCC-78 = tested on: HCC-78
Summary of the method: as §1

IA-LM = tested on: IA-LM
Summary of the method: as §1

Calu-6 = tested on: Calu-6
Summary of the method: as §1

A549 = tested on: A549
Summary of the method: as §1

NCI-H1703 = tested on: NCI-H1703
Summary of the method: as §1

EBC-1 = tested on: EBC-1
Summary of the method: as §1

NCI-H1648 = tested on: NCI-H1648
Summary of the method: as §1

NCI-H1299 = tested on: NCI-H1299
Summary of the method: as §1

Question: Which results are given for `Cc1csc(=NC2CCCCC2)n1/N=C/c1ccc(O)c(O)c1O` [MIM1] + CCNC(=O)c1noc(-c2cc(C(C)C)c(O)cc2O)c1-c1ccc(CN2CCOCC2)cc1 [Luminespib] (partner 0.01 µM)?
Answer: relative viability (EMC-BAC-2; first compound 0.2 µM): 1.12; relative viability (EMC-BAC-2; first compound 0.6325 µM): 1.14; relative viability (EMC-BAC-2; first compound 2 µM): 1.13; relative viability (EMC-BAC-2; first compound 6.325 µM): 1.03; relative viability (EMC-BAC-2; first compound 20 µM): 0.423; relative viability (NCI-H1623; first compound 0.2 µM): 0.522; relative viability (NCI-H1623; first compound 0.6325 µM): 0.472; relative viability (NCI-H1623; first compound 2 µM): 0.437; relative viability (NCI-H1623; first compound 6.325 µM): 0.446; relative viability (NCI-H1623; first compound 20 µM): 0.404; relative viability (NCI-H1395; first compound 0.2 µM): 0.66; relative viability (NCI-H1395; first compound 0.6325 µM): 0.547; relative viability (NCI-H1395; first compound 2 µM): 0.755; relative viability (NCI-H1395; first compound 6.325 µM): 0.573; relative viability (NCI-H1395; first compound 20 µM): 0.293; relative viability (LCLC-97TM1; first compound 0.2 µM): 0.783; relative viability (LCLC-97TM1; first compound 0.6325 µM): 0.733; relative viability (LCLC-97TM1; first compound 2 µM): 0.755; relative viability (LCLC-97TM1; first compound 6.325 µM): 0.512; relative viability (LCLC-97TM1; first compound 20 µM): 0.238

Question: For `Cc1csc(=NC2CCCCC2)n1/N=C/c1ccc(O)c(O)c1O` [MIM1] + Cc1nc(Nc2ncc(C(=O)Nc3c(C)cccc3Cl)s2)cc(N2CCN(CCO)CC2)n1 [Dasatinib] (partner 0.075 µM), which relative viability (EMC-BAC-2; first compound 0.2 µM) is on record?
Answer: 0.218

Question: What about the relative viability (EMC-BAC-2; first compound 0.6325 µM) of the same molecule?
Answer: 0.302

Question: And the relative viability (EMC-BAC-2; first compound 2 µM)?
Answer: 0.317

Question: And the relative viability (EMC-BAC-2; first compound 6.325 µM)?
Answer: 0.31

Question: And the relative viability (EMC-BAC-2; first compound 20 µM)?
Answer: 0.179

Question: And the relative viability (NCI-H1623; first compound 0.2 µM)?
Answer: 0.594

Question: And the relative viability (NCI-H1623; first compound 0.6325 µM)?
Answer: 0.476

Question: And the relative viability (NCI-H1623; first compound 2 µM)?
Answer: 0.498

Question: And the relative viability (NCI-H1623; first compound 6.325 µM)?
Answer: 0.536

Question: And the relative viability (NCI-H1623; first compound 20 µM)?
Answer: 0.299

Question: And the relative viability (NCI-H1395; first compound 0.2 µM)?
Answer: 0.504

Question: And the relative viability (NCI-H1395; first compound 0.6325 µM)?
Answer: 0.465

Question: And the relative viability (NCI-H1395; first compound 2 µM)?
Answer: 0.381

Question: And the relative viability (NCI-H1395; first compound 6.325 µM)?
Answer: 0.443

Question: And the relative viability (NCI-H1395; first compound 20 µM)?
Answer: 0.303

Question: What about the relative viability (HCC-366; first compound 0.2 µM) of the same molecule?
Answer: 0.622

Question: And the relative viability (HCC-366; first compound 2 µM)?
Answer: 0.65

Question: And the relative viability (HCC-366; first compound 6.325 µM)?
Answer: 0.388

Question: What about the relative viability (HCC-366; first compound 20 µM) of the same molecule?
Answer: 0.0615

Question: What about the relative viability (HCC-78; first compound 0.2 µM) of the same molecule?
Answer: 0.467

Question: And the relative viability (HCC-78; first compound 0.6325 µM)?
Answer: 0.287

Question: What about the relative viability (HCC-78; first compound 2 µM) of the same molecule?
Answer: 0.435

Question: And the relative viability (HCC-78; first compound 6.325 µM)?
Answer: 0.344

Question: What about the relative viability (HCC-78; first compound 20 µM) of the same molecule?
Answer: 0.487

Question: What about the relative viability (LCLC-97TM1; first compound 0.2 µM) of the same molecule?
Answer: 0.866

Question: What about the relative viability (LCLC-97TM1; first compound 0.6325 µM) of the same molecule?
Answer: 0.709

Question: And the relative viability (LCLC-97TM1; first compound 2 µM)?
Answer: 1.02

Question: And the relative viability (LCLC-97TM1; first compound 6.325 µM)?
Answer: 0.552

Question: What about the relative viability (LCLC-97TM1; first compound 20 µM) of the same molecule?
Answer: 0.431

Question: What does the source list for `Cc1csc(=NC2CCCCC2)n1/N=C/c1ccc(O)c(O)c1O` [MIM1] + O=C(c1cc(Cc2n[nH]c(=O)c3ccccc23)ccc1F)N1CCN(C(=O)C2CC2)CC1 [Olaparib] (partner 8 µM)?
Answer: relative viability (EMC-BAC-2; first compound 0.2 µM): 0.494; relative viability (EMC-BAC-2; first compound 2 µM): 0.433; relative viability (EMC-BAC-2; first compound 6.325 µM): 0.378; relative viability (EMC-BAC-2; first compound 20 µM): 0.212; relative viability (NCI-H1395; first compound 0.2 µM): 0.454; relative viability (NCI-H1395; first compound 0.6325 µM): 0.485; relative viability (NCI-H1395; first compound 2 µM): 0.414; relative viability (NCI-H1395; first compound 6.325 µM): 0.436; relative viability (NCI-H1395; first compound 20 µM): 0.346; relative viability (IA-LM; first compound 0.2 µM): 0.947; relative viability (IA-LM; first compound 0.6325 µM): 0.854; relative viability (IA-LM; first compound 2 µM): 0.829; relative viability (IA-LM; first compound 6.325 µM): 0.518; relative viability (IA-LM; first compound 20 µM): 0.192; relative viability (Calu-6; first compound 0.6325 µM): 0.563; relative viability (Calu-6; first compound 2 µM): 0.614; relative viability (Calu-6; first compound 6.325 µM): 0.288; relative viability (Calu-6; first compound 20 µM): 0.152; relative viability (HCC-366; first compound 0.2 µM): 0.351; relative viability (HCC-366; first compound 2 µM): 0.249; relative viability (HCC-366; first compound 6.325 µM): 0.0373; relative viability (HCC-366; first compound 20 µM): 0.0269; relative viability (A549; first compound 0.2 µM): 0.277; relative viability (A549; first compound 0.6325 µM): 0.282; relative viability (A549; first compound 2 µM): 0.304; relative viability (A549; first compound 6.325 µM): 0.181; relative viability (A549; first compound 20 µM): 0.0693; relative viability (NCI-H1703; first compound 0.2 µM): 0.54; relative viability (NCI-H1703; first compound 0.6325 µM): 0.738; relative viability (NCI-H1703; first compound 2 µM): 0.509; relative viability (NCI-H1703; first compound 6.325 µM): 0.369; relative viability (NCI-H1703; first compound 20 µM): 0.0913; relative viability (HCC-78; first compound 0.2 µM): 0.716; relative viability (HCC-78; first compound 2 µM): 0.906; relative viability (HCC-78; first compound 6.325 µM): 0.47; relative viability (HCC-78; first compound 20 µM): 0.462; relative viability (EBC-1; first compound 0.2 µM): 0.559; relative viability (EBC-1; first compound 0.6325 µM): 0.742; relative viability (EBC-1; first compound 2 µM): 0.673; relative viability (EBC-1; first compound 6.325 µM): 0.422; relative viability (EBC-1; first compound 20 µM): 0.338; relative viability (LCLC-97TM1; first compound 0.2 µM): 0.436; relative viability (LCLC-97TM1; first compound 0.6325 µM): 0.46; relative viability (LCLC-97TM1; first compound 2 µM): 0.343; relative viability (LCLC-97TM1; first compound 6.325 µM): 0.24; relative viability (LCLC-97TM1; first compound 20 µM): 0.0564; relative viability (NCI-H1648; first compound 0.2 µM): 1; relative viability (NCI-H1648; first compound 0.6325 µM): 1.03; relative viability (NCI-H1648; first compound 2 µM): 0.697; relative viability (NCI-H1648; first compound 6.325 µM): 0.611; relative viability (NCI-H1648; first compound 20 µM): 0.298; relative viability (NCI-H1299; first compound 0.2 µM): 0.942; relative viability (NCI-H1299; first compound 0.6325 µM): 0.954; relative viability (NCI-H1299; first compound 2 µM): 1.03; relative viability (NCI-H1299; first compound 6.325 µM): 0.928; relative viability (NCI-H1299; first compound 20 µM): 0.728
